Laboratory results as given in ChEMBL document CHEMBL2046395, “Discovery of nitroheterocycles active against African trypanosomes. In vitro screening and preliminary SAR studies” (Bioorg Med Chem Lett, 2012).

Legend:
[1] = system: Trypanosoma brucei rhodesiense; experiment: Antitrypanosomal activity against Trypanosoma brucei rhodesiense STIB900 by Alamar blue growth inhibition assay; assay type: functional, organism-based
L6 = experiment: Cytotoxicity against rat L6 cells; assay type: cell-based
[2] = Selectivity index, ratio of IC50 for rat L6 cells to IC50 for Trypanosoma brucei rhodesiense STIB900; assay type: toxicity, cell-based; details: read-out: Ratio IC50

Row | Compound | IC50 [1] [µM] | IC50 (L6) [µM] | selectivity ratio [2]
1 | O=c1c2cc([N+](=O)[O-])ccc2n2n1Cc1ccccc1CC2 | 86.4 | > 338 | > 4
2 | O=c1c2cc([N+](=O)[O-])ccc2n(Cc2ccccc2)n1Cc1ccccc1 | 49.5 | 37.3 | 0.8
3 | O=c1c2cc([N+](=O)[O-])ccc2[nH]n1Cc1ccccn1 | 252 | 286 | 1.1
4 | O=c1c2cc([N+](=O)[O-])ccc2n2n1Cc1ccccc1C2 | 66.8 | 222 | 3.3
5 | O=[N+]([O-])c1ccc2[nH]nc(OCc3ccccc3Cl)c2c1 | 73.4 | 30.5 | 0.4
6 | COc1nn(Cc2ccccc2F)c2ccc([N+](=O)[O-])cc12 | 191 | > 332 | > 1.7
7 | O=c1[nH]n(Cc2ccccc2F)c2ccc([N+](=O)[O-])cc12 | 168 | 210 | 1.3
8 | O=c1c2cc([N+](=O)[O-])ccc2[nH]n1Cc1ccccc1 | 163 | 234 | 1.4
9 | Cn1c(=O)c2cc([N+](=O)[O-])ccc2n1Cc1ccccc1 | 163 | 166 | 1
10 | Cn1c2ccc([N+](=O)[O-])cc2c(=O)n1Cc1ccccc1 | 8.2 | 43.4 | 5.3
11 | CCCn1c2ccc([N+](=O)[O-])cc2c(=O)n1Cc1ccccc1 | 20 | 77.4 | 3.9
12 | O=C(NN1Cc2ccccc2C1)c1cc([N+](=O)[O-])ccc1Cl | 97.3 | 19.8 | 0.2
13 | O=C(Cc1cc([N+](=O)[O-])ccc1F)NN1Cc2ccccc2C1 | 180 | 168 | 0.9
14 | O=C(NCc1cc([N+](=O)[O-])ccc1N1CCc2ccccc2C1)NCc1cc([N+](=O)[O-])ccc1N1CCc2ccccc2C1 | 7.1 | > 168 | > 23.6
15 | COc1nn(Cc2ccccc2Cn2nc(OC)c3cc([N+](=O)[O-])ccc32)c2ccc([N+](=O)[O-])cc12 | 119 | > 204 | > 1.7
16 | O=C(NN1Cc2ccccc2C1)c1ccccc1 | > 419 | 68.4 | 0.2
17 | O=C(NN1Cc2ccccc2C1)c1ccccc1F | 166 | 241 | 1.5
18 | O=C(NN1Cc2ccccc2C1)c1cc([N+](=O)[O-])ccc1F | 40.2 | > 331 | > 8.3
19 | O=C(NN1Cc2ccccc2C1)c1cccnc1Cl | > 365 | > 365 | 
20 | O=C(Cc1cc([N+](=O)[O-])ccc1F)NN1CCCCC1 | 320 | > 355 | > 1.1
21 | CN(C)NC(=O)c1cc([N+](=O)[O-])ccc1Cl | > 410 | > 410 | 
22 | O=C(NN1CCCCC1)c1cc([N+](=O)[O-])ccc1Cl | 212 | > 352 | > 1.7
23 | O=C(NN1CCc2ccccc2C1)c1cc([N+](=O)[O-])ccc1F | 23.1 | > 317 | > 13.7
24 | O=C(NN1CCc2ccccc2C1)c1cc([N+](=O)[O-])ccc1Cl | 55.5 | 22 | 0.4
25 | O=C(NN1Cc2ccccc2CN1)c1cc([N+](=O)[O-])ccc1Cl | 82.2 | 180 | 2.2
26 | O=C(NN(Cc1ccccc1)Cc1ccccc1)c1ccccc1Cl | 55.9 | 50.7 | 0.9
27 | O=C(NN(Cc1ccccc1)Cc1ccccc1)c1cc([N+](=O)[O-])ccc1Cl | 37.6 | 41.7 | 1.1
28 | O=C(NN(Cc1ccccc1)Cc1ccccc1)c1cc([N+](=O)[O-])ccc1F | 17.1 | 19.3 | 1.1

Row | Compound | IC50 [1] [µM] | IC50 (L6) [µM] | selectivity ratio [2]
29 | O=C(NN(c1ccccc1)c1ccccc1)c1cc([N+](=O)[O-])ccc1Cl | 7.4 | 13.3 | 1.8
30 | O=C(NN(c1ccccc1)c1ccccc1)c1cc([N+](=O)[O-])ccc1F | 5.6 | 3.2 | 0.6
31 | CCOc1ccc([N+](=O)[O-])cc1C(=O)NN(c1ccccc1)c1ccccc1 | 14.2 | 185 | 13
32 | [O-]C1=N[N+]2(CCCCC2)c2ccccc21 | > 494 | > 494 | 
33 | O=[N+]([O-])c1ccc2c(c1)C([O-])=N[N+]21CCCCCC1 | 192 | > 382 | > 2
34 | Cn1[nH]c(=O)c2cc([N+](=O)[O-])ccc21 | 313 | > 517 | > 1.7
35 | O=c1[nH]n(-c2ccccc2)c2ccc([N+](=O)[O-])cc12 | 109 | 158 | 1.4
36 | CN(C)CCOc1nn(Cc2ccccc2)c2ccc([N+](=O)[O-])cc12 | 10.8 | 57.6 | 5.3
37 | CN(C)CCCOc1nn(Cc2ccccc2F)c2ccc([N+](=O)[O-])cc12 | 5.2 | 32 | 6.1
38 | O=[N+]([O-])c1ccc2c(c1)CC([O-])=N[N+]21CCCCC1 | 198 | 324 | 1.6
39 | C[n+]1cccc2c(=O)n3n(c21)Cc1ccccc1C3 | 241 | > 263 | > 1.1
40 | O=C1C[N+]2(CCCCC2)c2ccc([N+](=O)[O-])cc21 | 213 | 84.9 | 0.4
41 | CCCCn1c2ccc([N+](=O)[O-])cc2c(=O)n1Cc1ccccc1 | 48.9 | 46.7 | 1
42 | Cn1c2ccc([N+](=O)[O-])cc2c(=O)n1-c1ccccc1 | 138 | 66.5 | 0.5
43 | O=C1CN(CCCCCN2CCCCC2)c2ccc([N+](=O)[O-])cc2N1 | 21.2 | 97.1 | 4.6
44 | CN1C(=O)CN(CCCCCN2CCCCC2)c2ccc([N+](=O)[O-])cc21 | 14.6 | 52.3 | 3.6
45 | CN1C(=O)C2Cc3ccccc3CCN2c2ccc([N+](=O)[O-])cc21 (stereo not drawn) | 63.4 | 15.1 | 0.2
46 | CN1C(=O)C2=Cc3ccccc3CCN2c2ccc([N+](=O)[O-])cc21 | 191 | > 311 | > 1.6
47 | CN1C(=O)C2CCCCN2c2ccc([N+](=O)[O-])cc21 (stereo not drawn) | 154 | 102 | 0.7
48 | CON1C(=O)C2CCCCN2c2ccc([N+](=O)[O-])cc21 (stereo not drawn) | 122 | 67.4 | 0.6
49 | CN1C(=O)C2Cc3ccccc3CN2c2ccc([N+](=O)[O-])cc21 (stereo not drawn) | 61.1 | 18.7 | 0.3
50 | O=[N+]([O-])c1ccc2c(c1)c(OCc1ccccc1)nn2Cc1ccccc1-c1ccccc1Cn1nc(OCc2ccccc2)c2cc([N+](=O)[O-])ccc21 | 80.5 | > 139 | > 1.7
51 | COc1nn(Cc2cccc(Cn3nc(OC)c4cc([N+](=O)[O-])ccc43)n2)c2ccc([N+](=O)[O-])cc12 | 57.6 | 151 | 2.6
52 | COc1nn(Cc2ccccc2Cn2nc(OC)c3ccccc32)c2ccccc12 | 101 | 44.7 | 0.4
53 | CSc1ccc(OCc2ncc([N+](=O)[O-])n2C)cc1 [FEXINIDAZOLE] | 1.71 |  | > 322
54 | O=C(NN(Cc1ccccc1)Cc1ccccc1)c1ccccc1 [N',N'-DIBENZYLBENZOHYDRAZIDE] | > 316 | > 316 | 
55 | COc1cc([C@@H]2c3cc4c(cc3[C@H](O)[C@H]3COC(=O)[C@H]23)OCO4)cc(OC)c1OC [PODOFILOX] |  | 0.019 | 
